Assay: concentration in blood of tulobuterol upon administering to a rat, compared with oral administration
Assay type: in vivo
Settings: oral 10 mg/kg

## CC(C)(C)NCC(O)c1ccccc1Cl (centres unmarked) [tulobuterol]
blood
  AUC: 91000 ng·h/mL
  bioavailability: 5.37%
0.25 hr
  concentration in blood of tulobuterol: 227.0
0.5 hr
  concentration in blood of tulobuterol: 37.7
1 hr
  concentration in blood of tulobuterol: 17.1
2 hr
  concentration in blood of tulobuterol: 4.3
4 hr
  concentration in blood of tulobuterol: 0.8
6 hr
  concentration in blood of tulobuterol: 0 ng/mL
8 hr
  concentration in blood of tulobuterol: 0 ng/mL
12 hr
  concentration in blood of tulobuterol: 0 ng/mL
24 hr
  concentration in blood of tulobuterol: 0 ng/mL
